Assays:
Assay in all cases: relative viability (nuclei count vs DMSO), 5 days (fraction); higher = more cells survive
RU-SKI 43 + Bortezomib = compound: CC[C@@H](C)CNCC(=O)N1CCC2=C([C@@H]1COC3=CC=CC(=C3)C)C=CS2 [RU-SKI 43] + CC(C)C[C@H](NC(=O)[C@H](Cc1ccccc1)NC(=O)c1cnccn1)B(O)O [Bortezomib] (partner 0.002 µM)
How it was run: (§1)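 Each reported value is a median over duplicate plates. It expresses relative viability: treated-well nuclei count divided by vehicle-well nuclei count. Lung cancer cell lines in 1536-well plates were dosed by pin tool a day after seeding, alone with one drug or with a fixed anchor-drug dose plus five library-drug doses (not always all listed) in √10 steps, and nuclei were counted after 5 days.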

Irinotecan + Bortezomib = compound: CCc1c2c(nc3ccc(OC(=O)N4CCC(N5CCCCC5)CC4)cc13)-c1cc3c(c(=O)n1C2)COC(=O)[C@]3(O)CC [Irinotecan] + CC(C)C[C@H](NC(=O)[C@H](Cc1ccccc1)NC(=O)c1cnccn1)B(O)O [Bortezomib] (partner 0.002 µM)
How it was run: as §1

Irinotecan + Dasatinib = compound: CCc1c2c(nc3ccc(OC(=O)N4CCC(N5CCCCC5)CC4)cc13)-c1cc3c(c(=O)n1C2)COC(=O)[C@]3(O)CC [Irinotecan] + Cc1nc(Nc2ncc(C(=O)Nc3c(C)cccc3Cl)s2)cc(N2CCN(CCO)CC2)n1 [Dasatinib] (partner 0.075 µM)
How it was run: as §1

Irinotecan + Crizotinib = compound: CCc1c2c(nc3ccc(OC(=O)N4CCC(N5CCCCC5)CC4)cc13)-c1cc3c(c(=O)n1C2)COC(=O)[C@]3(O)CC [Irinotecan] + C[C@@H](Oc1cc(-c2cnn(C3CCNCC3)c2)cnc1N)c1c(Cl)ccc(F)c1Cl [Crizotinib] (partner 1 µM)
How it was run: as §1

Row | Cell Line | relative viability (RU-SKI 43 + Bortezomib; first compound 0.1 µM) | relative viability (RU-SKI 43 + Bortezomib; first compound 0.3162 µM) | relative viability (RU-SKI 43 + Bortezomib; first compound 1 µM) | relative viability (RU-SKI 43 + Bortezomib; first compound 3.162 µM) | relative viability (RU-SKI 43 + Bortezomib; first compound 10 µM) | relative viability (Irinotecan + Bortezomib; first compound 2 µM) | relative viability (Irinotecan + Bortezomib; first compound 6.325 µM) | relative viability (Irinotecan + Bortezomib; first compound 20 µM) | relative viability (Irinotecan + Dasatinib; first compound 0.6325 µM) | relative viability (Irinotecan + Dasatinib; first compound 2 µM) | relative viability (Irinotecan + Dasatinib; first compound 6.325 µM) | relative viability (Irinotecan + Dasatinib; first compound 20 µM) | relative viability (Irinotecan + Crizotinib; first compound 2 µM) | relative viability (Irinotecan + Crizotinib; first compound 6.325 µM) | relative viability (Irinotecan + Crizotinib; first compound 20 µM) | relative viability (Irinotecan + Bortezomib; first compound 0.6325 µM) | relative viability (Irinotecan + Crizotinib; first compound 0.6325 µM)
1 | ChaGo-K-1 | 1.39 | 1.14 | 1.29 | 0.84 | 0.939 | 1.05 | 0.46 | 0.379 | 0.351 | 0.474 | 0.236 | 0.178 | 0.849 | 0.47 | 0.402 | – | –
2 | NCI-H650 | 1.02 | 0.779 | 1.1 | – | 0.891 | 0.507 | 0.262 | 0.385 | 0.34 | 0.396 | 0.215 | 0.245 | 0.436 | 0.258 | 0.235 | 0.689 | 0.543
3 | EBC-1 | 0.469 | 0.428 | 0.652 | 0.451 | 0.382 | 0.437 | 0.474 | 0.143 | – | – | – | – | 0.165 | 0.203 | 0.151 | 0.421 | 0.191
4 | NCI-H2228 | 1.19 | 1.26 | 0.937 | 1.98 | 0.941 | 0.685 | 0.514 | 0.343 | 0.443 | 0.481 | 0.318 | 0.246 | 0.518 | 0.39 | 0.433 | 0.689 | 0.597
5 | NCI-H1703 | 0.345 | 0.227 | 0.371 | 0.282 | 0.227 | 0.426 | 0.33 | 0.112 | – | – | – | – | 0.58 | 0.447 | 0.182 | 0.267 | 0.737
6 | 201T | 1.09 | 1.09 | 1.17 | 1.12 | 1.07 | 1.12 | 1.06 | 0.942 | – | 0.552 | 0.529 | 0.36 | 0.888 | 0.52 | 0.388 | – | –
7 | NCI-H1915 | 1.05 | 1.39 | 1.1 | 0.959 | 1.02 | 0.445 | 0.24 | 0.148 | 0.215 | 0.221 | 0.132 | 0.128 | 0.369 | 0.178 | 0.227 | 0.537 | 0.417
8 | NCI-H358 | – | – | – | – | – | – | – | – | 0.142 | 0.151 | 0.136 | 0.105 | 0.431 | 0.484 | 0.139 | – | 0.497
9 | NCI-H2347 | 0.951 | 1.16 | 1.01 | 0.976 | 0.994 | 0.918 | 0.493 | 0.555 | 0.307 | 0.242 | 0.245 | 0.372 | 0.476 | 0.556 | 0.494 | 0.512 | 0.571
10 | H3255 | 0.906 | 0.751 | 1.23 | 0.652 | 0.754 | 0.529 | 0.299 | 0.392 | 0.443 | 0.292 | 0.358 | 0.387 | 0.539 | 0.383 | 0.251 | 0.432 | 0.741
11 | NCI-H2009 | 1.05 | 1.02 | 1.01 | 1.12 | 0.968 | 0.515 | 0.228 | 0.0808 | 0.284 | 0.287 | 0.182 | 0.116 | 0.857 | 0.233 | 0.224 | 0.294 | 0.912
12 | NCI-H460 | 1.23 | 1.8 | 1.53 | 1.25 | 1.03 | 0.353 | 0.0854 | 0.0632 | 0.402 | 0.301 | 0.0681 | 0.0459 | 0.239 | 0.0835 | 0.0573 | 0.677 | 0.709
13 | COR-L 105 | 0.893 | 0.726 | 0.83 | 0.963 | 0.616 | 0.798 | 0.627 | 0.291 | 0.376 | 0.42 | 0.333 | 0.182 | 0.866 | 0.524 | 0.376 | 0.676 | 0.922
14 | BEN | 0.815 | 0.819 | 1.24 | 0.769 | 0.665 | 0.561 | 0.218 | 0.296 | 0.238 | 0.331 | 0.199 | 0.252 | 0.52 | 0.252 | 0.391 | 0.547 | 0.928
15 | NCI-H1993 | 1.04 | 1.01 | 1.15 | 1.1 | 0.756 | 0.968 | 0.613 | 0.399 | 0.549 | 0.601 | 0.484 | 0.603 | 0.656 | 0.671 | 0.664 | 1.1 | 0.897
16 | NCI-H1793 | – | – | – | – | – | – | – | – | – | 0.385 | 0.252 | 0.234 | – | – | – | – | –
17 | SW 900 | – | – | – | – | – | – | – | – | 0.688 | 0.707 | 0.509 | 0.488 | – | – | – | – | –
18 | A549 | – | – | – | – | – | – | – | – | – | – | – | – | 0.511 | 0.143 | 0.0565 | – | 0.621
19 | NCI-H2170 | – | – | – | – | – | – | – | – | 0.563 | 0.663 | 0.281 | 0.164 | 0.588 | 0.309 | 0.186 | – | 1.1
20 | NCI-H1623 | – | – | – | – | – | – | – | – | 0.391 | 0.442 | 0.214 | 0.22 | – | – | – | – | –
21 | SK-MES-1 | – | – | – | – | – | – | – | – | 0.293 | 0.284 | 0.22 | 0.186 | 0.767 | 0.272 | 0.298 | – | 0.93
22 | NCI-H1944 | – | – | – | – | – | – | – | – | 0.151 | 0.189 | 0.121 | 0.107 | 0.323 | 0.231 | 0.254 | – | 0.561
23 | HCC-44 | 0.918 | 0.864 | 1 | 0.849 | 0.852 | 0.752 | 0.229 | 0.351 | – | – | – | – | 0.491 | 0.27 | 0.273 | 0.74 | 0.578
24 | IA-LM | 0.798 | 0.759 | 1.12 | 0.912 | 0.745 | 0.355 | 0.197 | 0.0773 | – | – | – | – | 0.375 | 0.195 | 0.103 | 0.722 | 0.774
25 | NCI-H2342 | – | – | – | – | – | – | – | – | 0.304 | 0.278 | 0.299 | 0.377 | – | – | – | – | –
26 | LK-2 | – | – | – | – | – | – | – | – | 0.251 | 0.298 | 0.249 | 0.287 | 0.248 | 0.303 | 0.301 | – | 0.206
